Reference: patent US5223508A, “Pyridyl carboximidamide compounds useful in treating blood pressure” (Kirin Beer Kabushiki Kaisha, priority 1992, dated 1993)

Columns and labels:
[1] = system: animal; conditions: literature; cited from earlier work
[2] = system: potassium channel; conditions: literature; cited from earlier work
[3] = system: potassium channel; test: Potassium channel activating effect (86Rb efflux from rat thoracic aorta); design: species or system male Wistar rats; conditions: 10^-4M, 8 minutes
Description: Male Wistar rats (weighing 250-350 g) were dehematized to death, and thoracic aortae were rapidly isolated. The aorta was opened along the longitudinal axis to prepare a flat sheet. The preparation was loaded with ^86 Rb in the Krebs-Ringer solution which contained ^86 Rb in the concentration of 10 μCi/ml and was gassed with 95% O2 -5% CO2 at 37° C. for 2 hours. The preparation was then transferred to a Krebs-Ringer solution not containing ^86 Rb, and washed to remove excess radioactivity for 18 minutes by refreshing the solution every 2 minutes. Finally the preparation was placed into a Krebs-Ringer solution containing each compound (10^-4M) for 8 minutes.
The amount of ^86 Rb efflux from the preparation in each period was determined with a γ-counter.
The increment in efflux rate during the application of the compound was expressed as percent of the efflux before the application of the compound.

[4] = system: isolated rat aortae; test: Vasorelaxing effect on the isolated rat aortae (40 mM KCl contraction); design: species or system male Wistar rats; conditions: inhibition of 40 mM KCl-induced contraction, isolated rat aorta
Description: Vasorelaxing effect on the isolated rat aortae
The compounds of the present invention were tested for their physiological activities by measuring the tension of isolated rat aortae isometrically.
Thoracic aortae obtained from male Wistar rats (weighing 250-350 g) were cut into ring segments about 3 mm long. The ring preparation was placed in an organ bath filled with 10 ml of Krebs-Ringer solution that was maintained at 37° C. and gassed with 95% O2 -5% CO2.
The preparation in the organ bath was allowed to equilibrate under resting tension of 1 g. After equilibration period, the solution in the organ bath was replaced with an isotonic solution containing 40 mM KCl to contract the preparation.
After the contraction induced by KCl had reached plateau, the concentration-response relationship for the test compound was determined by means of cumulative addition.
The relaxation response of the test compounds was expressed as the percent inhibition of the contraction induced by KCl, and the IC50 value, which is a concentration required for inhibiting the contraction induced by KCl to an extent of 50%, was calculated by the Probit method from the concentration-response curve.

[5] = system: male ddY mice; test: Effect on hypoxia (survival time); type: in vivo; conditions: oral, 96% N2 -4% O2, mean ± S.E.M.
Description: Effect of the compound of the present invention on hypoxia
The effect of the compound of the present invention [test compound: N-cyano-N'-(2-nitroxyethyl)-3-pyridinecarboximidamide (compound (13))] on hypoxia was examined in male ddY mice (4 week old). Mice were exposed to a gas mixture of 96% N2 -4% O2 that was streamed in a flow rate of 5 l/min.
The time from the onset of the gas stream till the stop of respiration [survival time (sec)] was measured.
The test compound was orally administered in the dosage form of a 2% suspension in gum arabic 30 minutes before the onset of the gas streaming. The control group was administered a gum arabic suspension only.

Structure (SMILES)	effects in animal experiments [1]	potassium channel activating effect [2]	Increment of Efflux (86Rb) [3]	other results
CC1(C)Oc2ccc(C#N)cc2[C@@H](N2CCCC2=O)[C@@H]1O (relative stereo) [chromakalim]	vasodilating effect, antihypertensive effect, coronary blood flow increasing effect, cerebral vasodilative effect and bronchodilatative effect	potassium channel activating effect	–	–
N#CNC(=NCc1ccccc1)c1cccnc1 [(17), N-cyano-N'-benzyl-3-pyridinecarboximidamide]	–	–	135.41%	–
N#CNC(=NCCc1ccccc1)c1cccnc1 [(27), N-cyano-N'-(2-phenylethyl)-3-pyridinecarboximidamide]	–	–	206.61%	–
COc1ccc(NC(=NC#N)c2cccnc2)c(OC)n1 [(40), N-cyano-N'-3-(2,6-dimethoxypyridine)-3-pyridinecarboximidamide]	–	–	–	IC50 [4]: 10 µM
N#CNC(=NCCO[N+](=O)[O-])c1ccncc1 [(41), N-cyano-N'-(2-nitroxyethyl)-4-pyridinecarboximidamide]	–	–	126.88%	–
N#CNC(=NCCO[N+](=O)[O-])c1cccnc1 [Compound (13), N-cyano-N'-(2-nitroxyethyl)-3-pyridinecarboximidamide]	–	–	213.53%	Survival Time ([5]; 0.3 mg/kg): 130.27 ± 9.32 s; Survival Time ([5]; 1.0 mg/kg): 201.00 ± 13.40 s; Survival Time ([5]; 3.0 mg/kg): 523.15 ± 48.57 s
O=C(NCCO[N+](=O)[O-])c1cccnc1 [Nicorandil, nicorandil]	vasodilating effect, antihypertensive effect, coronary blood flow increasing effect, cerebral vasodilative effect and bronchodilatative effect	potassium channel activating effect	–	–
CC(N/C(=N\C#N)Nc1ccncc1)C(C)(C)C (centres unmarked) [pinacidil]	vasodilating effect, antihypertensive effect, coronary blood flow increasing effect, cerebral vasodilative effect and bronchodilatative effect	potassium channel activating effect	–	–
